Measurements reported in patent publication US20250282802A1, “P[…] AND METHODS” (priority 2020, published 2025).
Where two headings read alike, the source gives them in different places.

Key:
Assay type in all cases: cell-based
[1] = tested on: D54 (glioblastoma); test: Cytotoxicity profiling (Alamar Blue), D54; settings: Homo sapiens, 72-hour treatment
Description: (§1) FIG. 8. Cytotoxicity of pantaphos across various cancer cell lines. Assays were conducted as described (mBio. 2021 Feb. 2; 12(1):e03402-20), using the Alamar Blue method with 72-hour treatment using Raptinal ([…]) as Dead cell control; n=3. Cell seeding densities: CT26 (colon carcinoma) 2000 c/w; HOS (osteosarcoma) 2500 c/w; ES-2 (ovarian carcinoma), HCT-116 (colorectal carcinoma), A-549 (lung carcinoma), A-172 (glioblastoma), D54 (glioblastoma), U87 (glioblastoma), T98G (glioblastoma), SK-ML-28 (melanoma), MCF-7 (breast cancer), AM38 (glioblastoma) and MDA-MB-231 (breast cancer) 3000 c/w; U118MG (malignant glioma) 4000 c/w; HepG2 (liver cancer) 8000 c/w. c/w=cells per well. […]
(§2) Cell culture cytotoxicity screening. The compounds were evaluated for their ability to kill cancer cell lines in culture, using HOS (osteosarcoma); ES-2 (ovarian cancer); HCT 116 (colon cancer); A549 (lung carcinoma); and A172 (glioma) cells. Human skin fibroblast cells (HFF-1) were also assessed. […] 72 hours post-treatment, cell viability was assessed using the Alamar Blue method (http://www.bio-rad-antibodies.com/measuring-cytotoxicity-proliferation-spectrophotometry-fluorescence-alamarBlue.html). […] Conversion of Alamar Blue was measured with a plate reader (SpectraMax M3; Molecular Devices) by fluorescence (excitation wavelength: 555 nm; emission wavelength: 585 nm; cutoff 570 nm; autogain). […]

[2] = tested on: SK-ML-28 (melanoma); test: Cytotoxicity profiling (Alamar Blue), SK-ML-28; settings: Homo sapiens; SK-ML-28, Alamar Blue, 72-hour treatment
Description: as §1, §2

[3] = tested on: Saccharomyces cerevisiae X2180-1A; test: Fungicidal bioassay (MIC), Saccharomyces cerevisiae; settings: for MIC: Saccharomyces cerevisiae, X21801A, 48 hrs growth, CLSI
Description: Bacteria, plasmids and growth conditions. Bacterial strains, plasmids and primers used in this study are described in Table 3 and 4. General chemical and molecular biology reagents were purchased from Sigma-Aldrich or New England Biolabs. Phosphinothricin (glufosinate) was purchased from GoldBio (CAS #77182-82-2). Standard bacterial growth media were prepared as described (Current Protocols in Molecular Biology 2019, 125:e81, e82, e83). E. coli strains were typically grown at 37° C.; P. ananatis strains were typically grown at 30° C. Phosphonate induction media (PIM) was prepared as follows: 8.37 g/L MOPS, 0.72 g/L Tricine, 0.58 g/L NaCl, 0.51 g/L NH4Cl, 1.6 g/L KOH, 0.1 g/L MgCl2·6H2O, 0.05 g/L K2SO4, 0.2 g/L K2HIPO4 were dissolved H2O and steam sterilized for 20 min at 121° C. After cooling, 1× sterile trace element solution was added (1000× stock: 1.5 g/L nitrilotriacetic acid trisodium salt, 0.8 g/L Fe(NH4)2(SO4)2·7H2O, 0.2 g/L Na2SeO3, 0.1 g/L CoCl2·6H2O, 0.1 g/L MnSO4·H2O, 0.1 g/L Na2MoO4·2H2O, 0.1 g/L Na2WO4·2H2O, 0.1 g/L ZnSO4·7H2O, 0.1 g/L NiCl2·6H2O, 0.01 g/L H3BO3, 0.01 g/L CuSO4·5H2O) followed by addition of 1% (v/v) sterile glycerol and 50 μg/mL sterile kanamycin. For culturing of Candida and Saccharomyces strains, Rosewell Park Memorial Institute 1640 medium (RPMI; Sigma-Aldrich R6504) was used for liquid culturing and Sabouraud Dextrose Agar (SDA; Difco™ 210950) for solid plating unless otherwise specified. For Aspergillus strains, Rosewell Park Memorial Institute 1640 medium (RPMI) was used for liquid culturing and Potato Dextrose Agar (PDA; Difco™ 213400) was used for solid plating unless otherwise specified. YMM medium (6.7 g/L yeast nitrogen base without amino acids [BD Difco™ 291940], 20 g/L glucose, 1× trace element solution) was used as minimal media for fungal strains.
Fungicidal bioassays. […] Minimum Inhibitory Concentration (MIC) was determined visually by finding the concentration of compound at which there was no visual difference between that concentration and the uninoculated media control.

`O=C(O)/C=C(\C(=O)O)C(O)P(=O)(O)O` (centres unmarked) [pantaphos, 2-(hydroxy(phosphono)methyl)maleate] was tested, and the Emax [1] was 46 to 58%, the Emax [2] was 47 to 51% and the MIC ([3]; M9 minimal medium, read-out: MIC, Minimal medium) was over 62.5 µM. For the same compound, the MIC ([3]; RPMI 1640 medium, read-out: MIC, Rich medium) was over 125 µM and the “effect on the growth of fungi, in words” value ([3]; rich or minimal media) was “no effect on the growth”.
